Read-outs that look alike come from different tables or passages of the source.

What all share (assay): Z'-LYTE fluorescence kinase assay, single point
Type in all cases: biochemical

In one test the target is T1, ROCK2 (Homo sapiens, UniProt O75116).
T1 construct: commercial kinase panel (Z'-LYTE, Thermo Fisher)
To be noted: read-out: VS2. An excerpt:
Z'-LYTE fluorescence kinase assay, single point on ROCK2

A further test deals with T2, LRKK2 (Homo sapiens, UniProt Q5S007).
T2 construct: gene LRRK2; commercial kinase panel (Z'-LYTE, Thermo Fisher)
T2 sequence (Q5S007 whole entry): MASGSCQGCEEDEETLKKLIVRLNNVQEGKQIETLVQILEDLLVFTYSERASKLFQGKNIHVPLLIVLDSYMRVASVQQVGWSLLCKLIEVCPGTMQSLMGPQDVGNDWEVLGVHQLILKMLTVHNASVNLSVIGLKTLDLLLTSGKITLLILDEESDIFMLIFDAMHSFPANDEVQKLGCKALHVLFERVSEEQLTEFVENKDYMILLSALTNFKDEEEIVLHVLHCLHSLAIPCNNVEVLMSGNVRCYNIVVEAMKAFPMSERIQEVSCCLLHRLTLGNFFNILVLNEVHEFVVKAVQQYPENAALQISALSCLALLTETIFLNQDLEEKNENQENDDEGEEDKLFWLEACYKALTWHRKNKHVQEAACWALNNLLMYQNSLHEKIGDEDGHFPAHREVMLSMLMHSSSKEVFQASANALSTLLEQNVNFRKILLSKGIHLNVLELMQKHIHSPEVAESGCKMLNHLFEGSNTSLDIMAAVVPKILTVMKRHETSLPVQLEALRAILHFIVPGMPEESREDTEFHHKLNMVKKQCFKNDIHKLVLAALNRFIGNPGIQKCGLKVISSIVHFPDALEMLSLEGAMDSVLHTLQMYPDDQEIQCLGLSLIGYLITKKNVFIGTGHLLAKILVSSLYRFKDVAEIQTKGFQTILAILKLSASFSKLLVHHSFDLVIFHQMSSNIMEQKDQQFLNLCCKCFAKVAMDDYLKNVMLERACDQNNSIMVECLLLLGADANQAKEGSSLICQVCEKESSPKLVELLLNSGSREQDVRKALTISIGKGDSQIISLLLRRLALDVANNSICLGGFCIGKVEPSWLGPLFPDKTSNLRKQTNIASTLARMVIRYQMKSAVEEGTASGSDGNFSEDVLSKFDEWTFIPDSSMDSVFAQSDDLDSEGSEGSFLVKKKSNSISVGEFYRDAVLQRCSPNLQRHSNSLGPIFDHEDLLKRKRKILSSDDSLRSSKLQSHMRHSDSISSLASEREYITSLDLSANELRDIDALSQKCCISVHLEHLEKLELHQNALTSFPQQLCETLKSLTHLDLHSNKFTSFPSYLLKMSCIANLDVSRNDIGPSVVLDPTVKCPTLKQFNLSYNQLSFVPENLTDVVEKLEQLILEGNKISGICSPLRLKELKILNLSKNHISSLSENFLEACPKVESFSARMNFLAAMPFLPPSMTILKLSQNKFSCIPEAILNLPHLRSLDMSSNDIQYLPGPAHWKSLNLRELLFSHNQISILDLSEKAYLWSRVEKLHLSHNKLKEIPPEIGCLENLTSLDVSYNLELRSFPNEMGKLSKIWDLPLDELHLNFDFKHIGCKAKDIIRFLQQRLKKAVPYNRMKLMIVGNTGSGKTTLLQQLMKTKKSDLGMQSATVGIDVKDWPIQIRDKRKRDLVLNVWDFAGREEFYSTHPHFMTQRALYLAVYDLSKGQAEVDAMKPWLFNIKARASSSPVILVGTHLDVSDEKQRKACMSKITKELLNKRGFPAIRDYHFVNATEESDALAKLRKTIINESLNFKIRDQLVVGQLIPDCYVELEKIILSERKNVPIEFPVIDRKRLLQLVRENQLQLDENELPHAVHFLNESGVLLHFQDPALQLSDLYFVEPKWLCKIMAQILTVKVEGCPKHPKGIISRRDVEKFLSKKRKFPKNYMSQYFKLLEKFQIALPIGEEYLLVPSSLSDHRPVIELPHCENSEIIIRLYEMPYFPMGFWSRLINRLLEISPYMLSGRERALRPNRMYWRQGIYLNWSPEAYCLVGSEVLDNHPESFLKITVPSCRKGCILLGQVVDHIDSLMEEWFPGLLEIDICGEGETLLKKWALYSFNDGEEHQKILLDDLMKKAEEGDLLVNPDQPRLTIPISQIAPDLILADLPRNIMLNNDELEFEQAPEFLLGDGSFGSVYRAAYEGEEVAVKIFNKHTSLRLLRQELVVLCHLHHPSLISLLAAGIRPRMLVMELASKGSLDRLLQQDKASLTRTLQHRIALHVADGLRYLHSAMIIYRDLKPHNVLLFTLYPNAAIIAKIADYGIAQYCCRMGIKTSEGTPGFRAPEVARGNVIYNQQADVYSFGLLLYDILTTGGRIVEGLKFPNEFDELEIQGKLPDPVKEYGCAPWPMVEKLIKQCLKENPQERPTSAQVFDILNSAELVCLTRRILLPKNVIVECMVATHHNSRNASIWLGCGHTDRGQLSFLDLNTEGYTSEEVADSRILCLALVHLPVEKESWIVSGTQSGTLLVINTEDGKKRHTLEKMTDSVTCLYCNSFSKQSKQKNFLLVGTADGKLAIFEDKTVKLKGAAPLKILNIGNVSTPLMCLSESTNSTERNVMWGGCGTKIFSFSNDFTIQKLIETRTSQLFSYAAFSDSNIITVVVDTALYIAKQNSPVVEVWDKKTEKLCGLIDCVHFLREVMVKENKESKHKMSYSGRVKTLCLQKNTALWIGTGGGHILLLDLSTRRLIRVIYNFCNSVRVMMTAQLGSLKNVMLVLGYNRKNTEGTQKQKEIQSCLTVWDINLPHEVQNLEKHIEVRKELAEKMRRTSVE
An excerpt:
Z'-LYTE fluorescence kinase assay, single point on LRKK2

Another test concerns the target T3, SYK (Homo sapiens, UniProt P43405).
T3 construct: commercial kinase panel (Z'-LYTE, Thermo Fisher)
The source says: Z'-LYTE fluorescence kinase assay, single point on SYK

Another test concerns the target T4, CSF1R (Homo sapiens, UniProt P07333).
T4 construct: commercial kinase panel (Z'-LYTE, Thermo Fisher)
The source says:
Z'-LYTE fluorescence kinase assay, single point on CSF1R

For a further test, the target named is T5, MAPK8 (Homo sapiens, UniProt P45983).
T5 construct: commercial kinase panel (Z'-LYTE, Thermo Fisher)
To be noted: read-out: VS6. An excerpt: Z'-LYTE fluorescence kinase assay, single point on MAPK8

For a further test, the target named is T6, NTRK1 (Homo sapiens, UniProt P04629).
T6 construct: commercial kinase panel (Z'-LYTE, Thermo Fisher)
The conditions noted are these: read-out: VS7. An excerpt:
Z'-LYTE fluorescence kinase assay, single point on NTRK1

Another test addresses T7, LCK (Homo sapiens, UniProt P06239).
T7 construct: commercial kinase panel (Z'-LYTE, Thermo Fisher)
To be noted: read-out: VS7. An excerpt: Z'-LYTE fluorescence kinase assay, single point on LCK

Another test addresses T8, IRAK4 (Homo sapiens, UniProt Q9NWZ3).
T8 construct: commercial kinase panel (Z'-LYTE, Thermo Fisher)
T8 sequence (Q9NWZ3 1-460): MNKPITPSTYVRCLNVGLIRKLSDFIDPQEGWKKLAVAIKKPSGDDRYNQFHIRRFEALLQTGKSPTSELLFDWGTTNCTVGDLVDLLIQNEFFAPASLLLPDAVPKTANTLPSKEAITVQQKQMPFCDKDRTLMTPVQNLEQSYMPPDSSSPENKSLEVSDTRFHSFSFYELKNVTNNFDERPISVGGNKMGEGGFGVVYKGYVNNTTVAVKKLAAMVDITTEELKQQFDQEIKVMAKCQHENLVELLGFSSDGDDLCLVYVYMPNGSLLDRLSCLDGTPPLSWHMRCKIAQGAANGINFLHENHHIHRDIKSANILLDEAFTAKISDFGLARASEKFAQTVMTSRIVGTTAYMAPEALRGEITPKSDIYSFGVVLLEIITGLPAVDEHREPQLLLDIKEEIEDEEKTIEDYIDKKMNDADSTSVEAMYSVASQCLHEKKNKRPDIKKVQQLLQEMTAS
To be noted: read-out: VS7. The source says:
Z'-LYTE fluorescence kinase assay, single point on IRAK4

A further test deals with T9, PTK2 (Homo sapiens, UniProt Q05397).
T9 construct: commercial kinase panel (Z'-LYTE, Thermo Fisher)
To be noted: read-out: VS7. An excerpt: Z'-LYTE fluorescence kinase assay, single point on PTK2

T4 sequence (P07333 20-972): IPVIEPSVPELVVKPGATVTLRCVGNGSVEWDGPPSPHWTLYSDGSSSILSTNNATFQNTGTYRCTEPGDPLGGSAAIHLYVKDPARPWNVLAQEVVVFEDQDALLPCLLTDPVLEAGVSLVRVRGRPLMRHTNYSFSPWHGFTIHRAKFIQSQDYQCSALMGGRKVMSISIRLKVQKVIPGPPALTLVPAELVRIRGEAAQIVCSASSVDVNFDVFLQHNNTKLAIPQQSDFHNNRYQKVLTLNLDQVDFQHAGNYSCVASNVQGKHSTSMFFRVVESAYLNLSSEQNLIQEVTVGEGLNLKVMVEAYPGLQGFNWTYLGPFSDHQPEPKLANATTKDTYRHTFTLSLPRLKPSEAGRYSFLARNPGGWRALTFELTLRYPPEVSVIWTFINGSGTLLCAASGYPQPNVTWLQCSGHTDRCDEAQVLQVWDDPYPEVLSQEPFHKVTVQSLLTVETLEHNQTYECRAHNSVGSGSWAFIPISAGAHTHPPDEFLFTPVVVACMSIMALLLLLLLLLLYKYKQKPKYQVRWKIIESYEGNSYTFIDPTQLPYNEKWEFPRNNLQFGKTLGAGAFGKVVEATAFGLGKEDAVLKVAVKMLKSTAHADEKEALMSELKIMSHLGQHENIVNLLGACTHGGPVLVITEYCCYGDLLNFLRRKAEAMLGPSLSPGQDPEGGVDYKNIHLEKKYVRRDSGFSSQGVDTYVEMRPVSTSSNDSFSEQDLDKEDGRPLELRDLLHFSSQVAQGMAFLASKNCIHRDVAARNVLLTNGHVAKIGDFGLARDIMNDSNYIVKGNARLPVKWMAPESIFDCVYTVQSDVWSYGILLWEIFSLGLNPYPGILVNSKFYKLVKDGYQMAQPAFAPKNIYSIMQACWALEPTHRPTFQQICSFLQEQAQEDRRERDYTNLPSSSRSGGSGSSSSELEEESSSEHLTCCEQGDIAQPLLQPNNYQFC
T1 sequence (O75116 whole entry): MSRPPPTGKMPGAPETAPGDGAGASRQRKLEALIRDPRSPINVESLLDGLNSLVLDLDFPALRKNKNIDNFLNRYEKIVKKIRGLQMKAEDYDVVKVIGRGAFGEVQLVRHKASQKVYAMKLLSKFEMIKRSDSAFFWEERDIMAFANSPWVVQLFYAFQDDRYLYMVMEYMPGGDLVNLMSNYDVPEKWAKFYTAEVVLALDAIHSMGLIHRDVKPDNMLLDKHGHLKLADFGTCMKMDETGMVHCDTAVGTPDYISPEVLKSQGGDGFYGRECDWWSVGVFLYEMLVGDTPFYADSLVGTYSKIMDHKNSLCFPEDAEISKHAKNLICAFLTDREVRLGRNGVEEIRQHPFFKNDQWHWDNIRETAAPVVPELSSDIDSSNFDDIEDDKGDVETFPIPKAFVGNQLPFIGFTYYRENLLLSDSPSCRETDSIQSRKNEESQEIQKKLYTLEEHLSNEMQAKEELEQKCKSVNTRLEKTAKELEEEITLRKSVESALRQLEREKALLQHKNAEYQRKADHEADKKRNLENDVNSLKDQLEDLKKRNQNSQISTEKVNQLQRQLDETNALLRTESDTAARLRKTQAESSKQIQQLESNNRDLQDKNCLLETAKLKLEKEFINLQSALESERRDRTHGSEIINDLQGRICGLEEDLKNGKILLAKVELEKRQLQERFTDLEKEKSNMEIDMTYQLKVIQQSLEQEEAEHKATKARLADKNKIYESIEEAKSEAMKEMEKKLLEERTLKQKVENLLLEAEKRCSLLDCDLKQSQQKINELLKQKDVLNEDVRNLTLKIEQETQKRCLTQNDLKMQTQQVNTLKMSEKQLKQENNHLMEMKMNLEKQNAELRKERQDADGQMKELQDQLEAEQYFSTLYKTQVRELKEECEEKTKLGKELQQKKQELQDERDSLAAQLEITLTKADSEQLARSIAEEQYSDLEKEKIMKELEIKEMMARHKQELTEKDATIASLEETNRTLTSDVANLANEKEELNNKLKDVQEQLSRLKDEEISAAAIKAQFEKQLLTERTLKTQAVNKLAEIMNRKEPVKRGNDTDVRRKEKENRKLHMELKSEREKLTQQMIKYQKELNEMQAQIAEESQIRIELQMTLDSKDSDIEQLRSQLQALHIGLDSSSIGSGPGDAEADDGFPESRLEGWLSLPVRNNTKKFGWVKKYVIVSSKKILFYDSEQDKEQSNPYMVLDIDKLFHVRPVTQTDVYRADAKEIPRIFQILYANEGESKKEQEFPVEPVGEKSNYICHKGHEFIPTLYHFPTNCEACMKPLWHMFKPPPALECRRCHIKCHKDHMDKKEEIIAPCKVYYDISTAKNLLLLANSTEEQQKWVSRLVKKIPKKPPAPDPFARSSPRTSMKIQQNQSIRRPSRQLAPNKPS

`O=C(Nc1ccncc1)c1cccc(C(F)(F)F)c1` [VS2]: the figures for the inhibition at 10 µM on ROCK2 and on LRKK2 (read-out: VS2) were 74% and 50%, respectively.
In the case of `c1ccc(Nc2nccc(-c3ccsc3)n2)cc1` [VS6], the inhibition at 10 µM on SYK (read-out: VS6) worked out at 57%; at LRKK2 (read-out: VS6), 60%; at CSF1R (read-out: VS6) it was 89%; on MAPK8, 63%.
With `Cc1cc(C(=O)Nc2scc(-c3ccc(C)c(C)c3)c2C(N)=O)no1` [VS5], the inhibition at 10 µM at CSF1R (read-out: VS5) turned out to be 54%.
`COc1cc(/C=C(/C#N)C(=O)c2ccccc2)ccc1O` [VS3]: on LRKK2 (read-out: VS3), the inhibition at 10 µM amounted to 54%.
In the case of `NC(=O)c1ccc(Nc2nc(NCc3ccco3)c3ccccc3n2)cc1` [VS7], the inhibition at 10 µM amounted to 90% on SYK (read-out: VS7); 90% on NTRK1; 100% on LRKK2 (read-out: VS7); 53% at LCK; 89% on CSF1R (read-out: VS6); 80% at IRAK4. For the same molecule, on PTK2, the inhibition at 10 µM worked out at 66%.
